One assay concerns the target T1, hDyn2 (Homo sapiens, UniProt P50570).
T1 sequence (P50570 1-870): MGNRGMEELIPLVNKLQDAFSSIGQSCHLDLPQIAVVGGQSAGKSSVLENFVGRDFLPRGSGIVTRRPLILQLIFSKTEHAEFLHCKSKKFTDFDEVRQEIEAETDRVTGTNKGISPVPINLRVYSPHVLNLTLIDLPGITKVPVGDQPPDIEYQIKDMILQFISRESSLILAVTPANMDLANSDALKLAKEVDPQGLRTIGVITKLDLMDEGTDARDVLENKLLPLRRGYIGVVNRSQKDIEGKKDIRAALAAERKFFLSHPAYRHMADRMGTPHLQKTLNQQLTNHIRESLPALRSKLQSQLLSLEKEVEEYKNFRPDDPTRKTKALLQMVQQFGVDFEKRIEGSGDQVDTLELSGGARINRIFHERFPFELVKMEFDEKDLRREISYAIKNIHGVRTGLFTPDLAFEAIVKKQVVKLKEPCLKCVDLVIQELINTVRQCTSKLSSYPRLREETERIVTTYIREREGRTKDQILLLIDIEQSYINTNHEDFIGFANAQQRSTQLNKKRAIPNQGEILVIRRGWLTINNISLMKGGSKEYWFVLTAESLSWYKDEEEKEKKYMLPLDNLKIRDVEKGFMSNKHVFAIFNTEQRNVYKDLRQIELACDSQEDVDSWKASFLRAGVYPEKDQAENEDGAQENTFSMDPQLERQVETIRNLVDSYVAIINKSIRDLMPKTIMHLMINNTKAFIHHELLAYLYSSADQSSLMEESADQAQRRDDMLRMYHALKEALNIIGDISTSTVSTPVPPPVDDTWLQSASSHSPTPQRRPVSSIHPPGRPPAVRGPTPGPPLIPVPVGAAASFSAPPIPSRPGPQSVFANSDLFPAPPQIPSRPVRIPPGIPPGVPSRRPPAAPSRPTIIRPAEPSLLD
Kind of assay: negative-stain EM, GTP-induced helix disassembly on actin bundles. It counts as binding. As to conditions: 1 mM GTP, with actin, room temperature, 30 min.

Another assay concerns the target T2, hDyn1 (Homo sapiens, UniProt Q05193).
T2 sequence (Q05193 1-864): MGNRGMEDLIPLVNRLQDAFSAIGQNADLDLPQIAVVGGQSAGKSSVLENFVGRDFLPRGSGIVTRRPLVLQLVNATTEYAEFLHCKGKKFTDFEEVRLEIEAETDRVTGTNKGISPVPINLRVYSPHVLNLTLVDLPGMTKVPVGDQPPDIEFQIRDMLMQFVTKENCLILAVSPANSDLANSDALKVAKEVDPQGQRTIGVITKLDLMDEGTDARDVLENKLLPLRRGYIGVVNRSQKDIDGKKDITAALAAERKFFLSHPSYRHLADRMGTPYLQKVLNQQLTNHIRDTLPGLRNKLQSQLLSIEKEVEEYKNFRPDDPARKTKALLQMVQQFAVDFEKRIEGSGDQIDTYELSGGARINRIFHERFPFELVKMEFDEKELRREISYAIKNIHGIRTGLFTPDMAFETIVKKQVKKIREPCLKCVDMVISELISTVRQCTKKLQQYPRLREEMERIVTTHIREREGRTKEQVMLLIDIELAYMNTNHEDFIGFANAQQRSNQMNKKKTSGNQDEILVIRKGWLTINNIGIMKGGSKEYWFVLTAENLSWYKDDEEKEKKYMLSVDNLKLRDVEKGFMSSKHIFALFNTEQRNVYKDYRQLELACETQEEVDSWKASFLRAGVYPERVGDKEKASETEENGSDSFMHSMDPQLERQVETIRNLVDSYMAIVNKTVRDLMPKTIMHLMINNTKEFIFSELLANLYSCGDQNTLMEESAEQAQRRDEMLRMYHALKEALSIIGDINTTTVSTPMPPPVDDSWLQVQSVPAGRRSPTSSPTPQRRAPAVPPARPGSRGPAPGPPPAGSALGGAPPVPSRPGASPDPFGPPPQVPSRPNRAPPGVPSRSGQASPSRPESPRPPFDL
The assay is described as above. The format is binding. Particulars: 1 mM GTP, with actin, room temperature, 30 min.

Experimental findings from article PMC7953826 (Nature cell biology, 2020) are described below.

`Nc1nc2c(ncn2[C@@H]2O[C@H](COP(=O)(O)OP(=O)(O)OP(=O)(O)O)[C@@H](O)[C@H]2O)c(=O)[nH]1` [GTP]: the “negative-stain EM, GTP-induced helix disassembly on actin bundles” value at hDyn2 is “hDyn1 and hDyn2 helices along actin bundles were disassembled upon GTP addition”; at hDyn1, “hDyn1 and hDyn2 helices along actin bundles were disassembled upon GTP addition”.
